# According to patent publication US20200400567A1, “FUSION POLYPEPTIDE” (PEKING UNIVERSITY, priority 2017, published 2020):
# Where “and” joins values, the source holds several entries; their conditions need not be identical. Identical values can stand only once. Entries after “also recorded” stand apart in the source; their conditions may differ. Like-named read-outs stand apart in the source and are kept apart here.
# Assays:
# [1] = test system: human acetylcholine receptor M3R subtype; assay: GRAB-ACh sensor fluorescence response to ACh, drug perfusion in HEK293T cells; assay type: cell-based
# Experimental: After DNA encoding specific GRAB sensor was introduced into cells by transfection, fluorescence imaging combined with perfusion experiment was. The imaging capture of HEK293T cells was performed using an Olympus IX81 inverted microscope, 40×NA: 1.35 oil lens, 475/28 excitation light filter, and 515LP emission light filter. The optical signal was collected by a Zyla sCMOS DG-152V-Cle FI camera (Andor), and Lambda DG-4 from Sutter Instuments company was used as a fluorescent light source. The exposure time was set to less than 50 ms and the acquisition frequency was 5 seconds. The entire imaging system was overall controlled by micromanager software.
# The detection of the response of the GRAB sensor to the ligand (ΔF/F0) was performed using a drug perfusion method. The cells were placed in a standard physiological solution, and the formula thereof is: […]
# The pH of the physiological solution was adjusted to about 7.4, and the small molecule drug was diluted with a part of the physiological solution to formulate solutions of respective concentrations of the small molecule ligand. […] Unless explicitly specified, the concentration of isoproterenol (ISO) for perfusion was 2 μM, and the concentration of acetylcholine for perfusion was 100 μM.
# The perfusion system was equipped on a microscope, including a solution-introduced system made of syringe for injection, a multi-way valve, an imaging workbench and a suction pump. During the perfusion process, the imaging workbench was placed above the objective lens of the inverted microscope, and then the slide on which cell plated were placed in the workbench. Perfusion of different drugs were performed by controlling the switches of different pipes. In order to control the level of the solution in the workbench, the perfusion speed was set to one drop or so per second. After each drug treatment, the cells were washed with a physiological solution for more than five minutes to ensure that there were no residual drugs that will affect subsequent experiments. After the end of each experiment, the perfusion pipe and the workbench were cleaned with 75% ethanol three times to ensure that the residual drugs and impurities were fully washed away.
# Fluorescence imaging data was processed using ImageJ software. For the performance of GRAB sensors in HEK293T cells and neurons, the fluorescence of entire cell body was selected as the data processing region. For living Drosophila imaging, fluorescence images on the same Z axis were analyzed by ImageJ software. The change in the fluorescence signal was indicated by its relative difference. The signal of background area without the expression of the sensor was first subtracted from the fluorescence signal, so as to obtain the real expression of the intensity of the fluorescent protein. Then, by calculating the fluorescence value F after adding the drug and the average fluorescence value F0 before adding, the relative fluorescence change ΔF/F=(F−F0)/F0 was obtained as the fluorescence response of the sensor to a specific drug. The change of ΔF/F0 with time was further plotted by Origin 8.6 software.
# Based on GRAB-ACh 1.0, this peptide linker was optimized. First, based on a flexible amino acid (glycine, alanine), the peptide segment was screened for optimal length. The specific strategy was to change the length of the peptide linkers at the N-terminus and C-terminus from 0 to 5 amino acids, respectively, and to randomly combine the N-terminus with C-terminus to obtain all possible permutations. Fusion protein expression vectors containing various arrangements were expressed in HEK293T cells and subjected to perfusion experiments.
# [2] = test system: human HTR2C receptor; assay type: cell-based; settings: for agonist-induced change of GRAB-5-HT2.1 fluorescence signal: GRAB-5-HT2.1 in HEK293T cells; for antagonism of serotonin-induced increase of GRAB-5-HT2.1 fluorescence signal: antagonist added after serotonin
# [3] = test system: human ADRA2A receptor; assay type: cell-based
# Experimental: The perfusion system was set on a microscope, and including a solution-introduced system, an imaging cell, and a suction pump. During the perfusion process, the imaging cell was placed above the objective lens of the inverted microscope, and the slide with cultured cells was placed in the cell. The perfusion experiments of different drugs were performed by controlling the switches of the different pipes of the solution-introduced system. The perfusion speed was set to one drop or so per second. In order to ensure the stability of the focal plane, the liquid level was kept constant at all times, and the flow rate of each solution was adjusted accordingly. The aspiration speed was adjusted to maintain the liquid level in the cell over the slide.
# The region of interest (ROI) and background area were selected manually prior to the perfusion experiment. The exposure time was set to less than 50 ms and the acquisition frequency was 5 seconds. The solution used for the perfusion was a physiological solution 4k (pH 7.3-7.4), which was used to formulate the drug to the desired concentration. The running time of the program was set to no more than 5 min. After using 4k to balance and stabilize the cells for about 60-90 s, the cells were perfused with drug for 60 s, and then washed with 4k. The excitation light for green fluorescent protein was 488 nm, and for red fluorescent protein was 568 nm. The laser intensity was adjusted according to the working state of the laser and the expression level of the cells.
# After the end of the program, the time-fluorescence intensity data sheet was exported. The background was subtracted from the ROI to get the corresponding fluorescence value Ft, and the average value of the fluorescence value before adding the drug was used as the starting fluorescence F0 to calculate
# The detection of the response of the GRAB sensor to the ligand (ΔF/F0) was performed by drug perfusion. The cells were maintained in a standard physiological solution, and the formula thereof is: […]
# Fluorescence imaging data was processed using ImageJ software. For the fluorescence performance of GRAB sensors in HEK293T cells and neurons, the entire cell body was selected as the data processing region. The change in the fluorescence signal was usually indicated by its relative intensity change. The background area without the expression of the sensor was first subtracted from the fluorescence signal, so as to obtain the true expression intensity of the fluorescent protein.
# [4] = test system: human DRD2 receptor; assay: GRAB-GDA3.0 fluorescence response in HEK293T cells, drug perfusion; assay type: cell-based
# Description: There are 5 subtypes of human dopamine receptors in the body, which are named DRD1-DRD5. For constructing a fluorescent sensor, the receptors were screened preliminarily by inserting a fluorescent protein at any position in the third intracellular loop of the receptor. […] Specifically, for the third intracellular loop of the human DRD2 receptor, the insertion sites were set every 15 amino acids. Human DRD2 receptors inserted with circular permutated fluorescent proteins at different positions were expressed in HEK293T cells, and drug perfusion experiments were conducted with dopamine. […] After the positions sensitive to conformational change were determined, the surrounding amino acid sites thereof were further screened. The sites surrounding the amino acid position 252 at N-terminus and the sites surrounding the amino acid position 357 at the C-terminus were combined and different sensors were constructed. The sensors were expressed in HEK293T cells and subjected to drug perfusion experiments with dopamine. […] The peptide linkers were GG at the N-terminus and GGAAA at the C-terminus.
# [5] = test system: GRAB-GDA3.0 signal in mushroom body (MB); assay: Odor-stimulated GRAB-GDA3.0 signal in mushroom body, in vivo two-photon imaging; parameters: species or system Drosophila; settings: 10 μM antagonist in imaging solution, n=6
# Experimental: Drosophila were kept in a 25-degree incubator with a standard medium. […] The adult Drosophila to be tested were transferred to a new culture tube within 0-2 days after emergence, and left at room temperature for 8-12 days. Before the imaging, the Drosophila were first fixed in a small dish, and then the square skull part near the eye was surgically removed to expose part of the brain. The adipose tissue and air sacs near the antennal lobes to be imaged were surgically removed to prevent interference with the fluorescent signal. In order to further reduce the degradation of image quality caused by the movement of Drosophila during the imaging, surgical forceps were used to cut the muscles underneath its halter. Throughout the dissection and imaging procedures, the brain of Drosophila was kept in a pre-chilled physiological solution, and the formula thereof is as follows: […]
# Drosophila imaging was performed using an Olympus two-photon microscope, including Olympus BX61 WI microscope, 25×NA: 1.05 water lens, and Ti:Sapphire laser mode-locked laser for two-photon excitation. For GRAB sensor imaging experiments, the wavelength of the […] was set to 950 nm in order to successfully excite the fluorescent protein to produce fluorescence. The odor molecule isoamyl acetate (IA) used for stimulating Drosophila was purchased from Sigma, and was diluted in mineral oil at a ratio of 1:100. In the experiment, the isoamyl acetate was further diluted 5-40 times by mixing with air. The air mixed with odor molecules was provided at a position about 1 cm away from the tentacles of the Drosophila through a cavity about 1 cm wide on the experimental table. The odor molecule of different concentrations was tested by controlling the airflow. Each imaging cycle was 17.8 seconds, of which 5 to 10 seconds was the time for providing specific odor molecules. After the imaging experiment for odor function, the imaging area was scanned layer by layer with high resolution setting to obtain the distribution information of the olfactory bulb, which was later identified based on the information of olfactory bulb distribution at the antennal lobe reported in the literature.
# The transgenic Drosophila UAS-GRAB-GDA3.0 was constructed to express the GRAB-GDA3.0 sensor in specific cells, driven by the corresponding GAL4 strain. First, GRAB-GDA3.0 was expressed in dopaminergic neurons (DAN) in all Drosophila, and the response induced by odor (isoamyl acetate) was examined by in vivo two-photon imaging (FIG. 39A).
# A pharmacological study was performed on GRAB-GDA3.0.
# The rate of GDA signal attenuation between normal Drosophila and Drosophila with reduced DAT expression was compared (this is the experiment of gene level research using DAT-RNAi described later). In DAN, the dopamine transporter (DAT) is located in the presynaptic membrane and […] DA intermittently and cyclically from the synapse. DAT-RNAi was used to inhibit DAT expression in DAN (FIG. 40G).
# [6] = test system: human acetylcholine receptor M3R subtype; assay: GRAB-ACh 2.0 kinetics, rapid local perfusion with high-speed line scanning; assay type: cell-based
# Experimental: For the detection of GRAB sensor kinetics, a local drug delivery system was used for the experiment. The experiment was performed using an Olympus upright microscope BX51, wherein a 40×NA: 0.80 water lens was used for imaging, and a 710M camera (DVC) was used for image acquisition. The drug delivery system was controlled by ROE-200 (from Sutter instruments company), and the position of the drug delivery needle was controlled by the MPS-1 operating lever. For the dynamic characterization experiment of the sensor, the imaging was processed using a frequency of 50 HZ (with a resolution of 768×484 pixels) and a surface element partition of 2×2.
# The Journal of pharmacology and experimental therapeutics 330, 660-668 (2009)) reduced the fluorescence signal in GRAB-ACh 2.0 expressing cells perfused with 100 μM ACh, with a smaller time constant of 762±75 ms (FIGS. 14b-c, right panel).
# Target sequence in this assay (as listed by the source): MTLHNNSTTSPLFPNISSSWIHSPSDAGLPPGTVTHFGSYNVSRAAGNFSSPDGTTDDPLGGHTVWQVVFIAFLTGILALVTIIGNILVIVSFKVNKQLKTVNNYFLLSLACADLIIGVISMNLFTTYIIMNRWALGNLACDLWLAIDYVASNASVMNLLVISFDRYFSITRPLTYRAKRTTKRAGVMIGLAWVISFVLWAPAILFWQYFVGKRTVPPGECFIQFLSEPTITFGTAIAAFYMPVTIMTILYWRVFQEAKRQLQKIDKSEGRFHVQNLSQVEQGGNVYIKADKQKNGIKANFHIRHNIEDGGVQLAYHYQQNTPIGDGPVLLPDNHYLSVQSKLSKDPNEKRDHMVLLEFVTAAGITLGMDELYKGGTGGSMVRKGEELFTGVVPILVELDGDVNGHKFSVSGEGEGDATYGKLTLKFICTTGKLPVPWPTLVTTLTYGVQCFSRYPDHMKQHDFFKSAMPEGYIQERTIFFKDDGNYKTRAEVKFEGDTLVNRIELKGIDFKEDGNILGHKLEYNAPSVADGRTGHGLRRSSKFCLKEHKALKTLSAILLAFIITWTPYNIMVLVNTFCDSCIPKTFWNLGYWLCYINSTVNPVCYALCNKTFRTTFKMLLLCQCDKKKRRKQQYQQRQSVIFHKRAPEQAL
molecule,measurement,setting,value
CCCN(CCC)CC1CCCCN1CCNC(=O)N1c2ccccc2C(=O)Nc2cccnc21 (centres unmarked) [AF-DX384],effect of M3R antagonist on ACh-induced increase of fluorescence,[1]; GRAB-ACh 2.0 in HEK293T cell,completely blocked
CC(N)Cc1c[nH]c2ccc(OCc3cccs3)cc12 (centres unmarked) [BWT23C83],agonist-induced change of GRAB-5-HT2.1 fluorescence signal,[2],cannot cause the change; also recorded: cannot change the fluorescent signal
CN1CCN(c2nc3cc(C(F)(F)F)ccc3n3cccc23)CC1.O=C(O)/C=C\C(=O)O.O=C(O)/C=C\C(=O)O [CGS12066B],agonist-induced change of GRAB-5-HT2.1 fluorescence signal,[2],cannot cause the change; also recorded: cannot change the fluorescent signal
Clc1cccc(COc2cncc(N3CCNCC3)n2)c1 [CP809],agonist-induced change of GRAB-5-HT2.1 fluorescence signal,[2],can cause the fluorescence signal change; also recorded: can induce changes in fluorescent signal
"CNC[C@H](O)c1ccc(O)c(O)c1 [Epi, Epinephrine]",activation of GRAB-NE2.1 fluorescence signal by ligand,[3],can activate
same,fluorescent signal change of GRAB-NE2.0 to ligand,[3],exhibits a fluorescent signal change
Nc1nc2c(ncn2[C@@H]2O[C@H](COP(=O)(O)OP(=O)(O)OP(O)(O)=S)[C@@H](O)[C@H]2O)c(=O)[nH]1 [GTPγS],effect of Gαi inhibition on concentration-dependent curve of GRAB-NE2.0 to NE,[3]; PTX co-transfection or GTPγS with digitonin,did not change the concentration-dependent curve
O=C(CCCN1CCC(O)(c2ccc(Cl)cc2)CC1)c1ccc(F)cc1 [Haloperidol],activation or block of GRAB-GDA3.0,[4],blocked; also recorded: inhibited
same,effect on odor (IA)-stimulated GDA signal in MB β' lobe,[5]; listed as halo,can be blocked
same,effect on odor (IA)-stimulated GDA signal in MB β' lobe,[5]; listed as haloperidol,completely blocked
"CC(C)NCC(O)c1ccc(O)c(O)c1 (centres unmarked) [ISO, Isoproterenol]",fluorescent signal change of GRAB-NE2.0 to ligand,"[3]; GRAB-NE2.0, saturated concentration",no response
same,activation of GRAB-NE2.1 fluorescence signal by ligand,[3]; cells expressing GRAB-NE2.1,cannot
"NC[C@H](O)c1ccc(O)c(O)c1 [NE, Norepinephrine]",activation of GRAB-NE2.1 fluorescence signal by ligand,[3],can activate
same,fluorescent signal change of GRAB-NE2.0 to ligand,[3],exhibits a fluorescent signal change
COc1cc(OC)c(C(=O)CCCCN2CCC3(CC2)NC(=O)NC3=O)cc1NS(=O)(=O)c1ccc(C(F)(F)F)cc1 [RS102221],antagonism of serotonin-induced increase of GRAB-5-HT2.1 fluorescence signal,[2],can antagonize; also recorded: can inhibit
Cc1cc(NC(=O)Nc2ccc3c(ccn3C)c2)sn1 [SB204741],antagonism of serotonin-induced increase of GRAB-5-HT2.1 fluorescence signal,[2],cannot antagonize; also recorded: failed to inhibit
"NCCc1ccc(O)c(O)c1 [dopamine, Dopamine]",activation or block of GRAB-GDA3.0,[4]; HEK293T cells,activated
NC1=NCC2c3ccccc3Cc3ccccc3N12 (centres unmarked) [epinastine],effect on odor (IA)-stimulated GDA signal in MB β' lobe,[5],cannot be blocked; also recorded: failed to be blocked
"GRAB-ACh 2.0: GRAB-ACh variant with GG-APSVA peptide linkers, SEQ ID NO: 16",ΔF/F0 peak response,"[1]; 100 μM ACh perfusion, HEK293T cells",~100% and 90.12±1.74% and 94.0±3.0% and 90%
same,EC50,"[1]; ACh 10 nM to 100 μM, Boltzmann fit, n=4",~0.7 µM
same,ΔF/F0 response,"[1]; ACh (100 μM), second round screening, HEK293T cells",~0.9
same,pEC50,[1]; dose-dependent response to ACh,6.12 ± 0.11
same,time constant of fluorescence increase,"[6]; ACh perfusion, single scan",185 ms
same,time constant of fluorescence decrease,"[6]; Tio perfusion, single scan",696 ms
same,average on time constant,"[6]; local ACh perfusion, single exponential fit, n=18",279.4 ± 32.6 ms and 280 ± 32 ms
same,average off time constant,"[6]; local antagonist perfusion in 100 μM ACh, n=11",762.3 ± 74.9 ms and 762 ± 75 ms
